Source: US20120135923A1, “Use of Melanocortins to Treat Dyslipidemia” (IPSEN PHARMA, S.A.S., priority 2009, published 2012)
Where two headings read alike, the source gives them in different places. Bridge positions count the residues as written; N and C are the ends. Square brackets hold non-standard residues; d marks the D form. Peptide text beside a SMILES is read from it. d2Nal = N[C@H](Cc1ccc2ccccc2c1)C(=O)O; Bta = N[C@@H](Cc1csc2ccccc12)C(=O)O; GABA = NCCCC(=O)O; βAla = NCCC(=O)O

Columns and labels:
hMC1-R [1] = target: T1, hMC1-R (Homo sapiens, UniProt Q01726); assay: Radioligand binding assay, [125I]-NDP-α-MSH competition, CHO-K1 membranes; conditions: Table 5; read-out: Ki hMC1-R
T1 construct: expressed in transfected cells; host or cells: CHO-K1
Procedure: (§1) Cellular membranes used for the in vitro receptor binding assays were obtained from transgenic CHO-K1 cells stably expressing hMC-R receptor subtypes 1, 3, 4 or 5. […] The pellets were resuspended in the same buffer and centrifuged at 50,000 g for 10 minutes at approximately 4° C. The washed pellets containing the cellular membranes were stored at approximately −80° C.
(§2) Cell membranes (1-10 μg protein/well) prepared as described above were incubated in 50 mM Tris-HCl at pH 7.4 containing 0.2% bovine serum albumin (BSA), 5 mM MgCl2, 1 mM CaCl2 and 0.1 mg/mL bacitracin, with increasing concentrations of the test compound and 0.1-0.3 nM [^25I]-NDP-α-MSH for approximately 90-120 minutes at approximately 37° C. […] Filters were washed three times with 50 mM Tris-HCl at pH 7.4 at a temperature of approximately 0-4° C. and then assayed for radioactivity using a Packard Topcount® scintillation counter. Binding data were analyzed by computer-assisted non-linear regression analysis (XL fit; IDBS).

hMC5-R [2] = target: T2, hMC5-R (Homo sapiens, UniProt P33032); assay: as above
T2 construct: expressed in transfected cells; host or cells: CHO-K1
Procedure: as §1, §2

hMC1-R [3] = target: T1, hMC1-R; assay: cyclic AMP bioassay (ECL) in CHO-K1 cells; assay type: cell-based
hMC3-R = target: T3, hMC3-R (Homo sapiens, UniProt P41968); assay: cyclic AMP bioassay (ECL) in CHO-K1 cells; assay type: cell-based
T3 construct: expressed in transfected cells; host or cells: CHO-K1
Procedure: Intracellular cyclic AMP (cAMP) levels were determined by an electrochemiluminescence (ECL) assay (Meso Scale Discovery®, Gaithersburg, Md.; referred to hereinafter as MSD). […] Transgenic CHO-K1 cells stably expressing hMC receptor subtypes 1, 3, 4 or 5 were dispensed at a density of approximately 7,000 cells/well in 384-well Multi-Array®plates (MSD) containing integrated carbon electrodes and coated with anti-cAMP antibody. Increasing concentrations of the test compounds were added and the cells were incubated for approximately 40 minutes at approximately 37° C. […] At the end of the second incubation period read buffer (Tris-buffered solution containing an ECL co-reactant and Triton X-100 at ph 7.8) was added and the cAMP levels in the cell lysates were immediately determined by ECL detection with a Sector Imager 6000 Reader® (MSD). Data were analyzed using a computer-assisted non-linear regression analysis (XL fit; IDBS) and reported as either an EC50 value or a Kb value.
The Kb value reflects the potency of an antagonist and is determined by Schild analysis. In brief, concentration-response curves of an agonist are carried out in the presence of increasing concentrations of an antagonist. […] It is calculated by extrapolating the line on a Schild plot to zero on the y-axis.

hMC4-R = target: T4, hMC4-R (Homo sapiens, UniProt P32245); assay: cyclic AMP bioassay (ECL) in CHO-K1 cells; assay type: cell-based
T4 construct: expressed in transfected cells; host or cells: CHO-K1

hMC5-R [4] = target: T2, hMC5-R; assay: cyclic AMP bioassay (ECL) in CHO-K1 cells; assay type: cell-based
[5] = cAMP, CHO-K1 cells expressing hMC1-R, read-out: EC50 hMC1-R
[6] = antagonist potency by Schild analysis, cAMP, CHO-K1 cells expressing hMC3-R, read-out: Kb hMC3-R
[7] = antagonist potency by Schild analysis, cAMP, CHO-K1 cells expressing hMC4-R, read-out: Kb hMC4-R
[8] = cAMP, CHO-K1 cells expressing hMC5-R, read-out: EC50 hMC5-R

T4 sequence (P32245 whole entry): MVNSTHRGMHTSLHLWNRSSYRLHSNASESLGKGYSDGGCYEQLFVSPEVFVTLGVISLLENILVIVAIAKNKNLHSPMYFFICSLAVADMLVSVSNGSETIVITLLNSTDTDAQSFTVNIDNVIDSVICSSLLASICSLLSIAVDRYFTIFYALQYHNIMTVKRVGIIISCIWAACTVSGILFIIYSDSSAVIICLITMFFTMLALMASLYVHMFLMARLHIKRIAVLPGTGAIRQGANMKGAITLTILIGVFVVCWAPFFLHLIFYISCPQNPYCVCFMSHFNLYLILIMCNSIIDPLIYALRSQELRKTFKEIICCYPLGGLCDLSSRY
T1 sequence (Q01726 whole entry): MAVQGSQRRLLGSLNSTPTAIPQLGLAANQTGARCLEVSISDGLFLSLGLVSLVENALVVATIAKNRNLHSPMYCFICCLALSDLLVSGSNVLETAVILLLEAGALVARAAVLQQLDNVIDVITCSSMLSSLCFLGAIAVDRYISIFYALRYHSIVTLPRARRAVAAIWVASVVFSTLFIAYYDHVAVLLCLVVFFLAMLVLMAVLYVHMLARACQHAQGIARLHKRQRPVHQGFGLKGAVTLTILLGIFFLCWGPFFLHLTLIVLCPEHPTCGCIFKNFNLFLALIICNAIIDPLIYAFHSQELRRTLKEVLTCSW
T2 sequence (P33032 whole entry): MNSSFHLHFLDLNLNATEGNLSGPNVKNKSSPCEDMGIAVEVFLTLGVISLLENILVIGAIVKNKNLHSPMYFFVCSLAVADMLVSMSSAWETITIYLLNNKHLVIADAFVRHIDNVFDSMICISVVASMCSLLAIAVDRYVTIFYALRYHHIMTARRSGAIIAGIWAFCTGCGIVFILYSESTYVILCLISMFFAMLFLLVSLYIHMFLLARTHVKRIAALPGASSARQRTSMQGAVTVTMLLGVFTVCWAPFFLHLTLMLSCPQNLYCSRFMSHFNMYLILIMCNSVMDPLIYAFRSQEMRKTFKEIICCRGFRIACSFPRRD
T3 sequence (P41968 whole entry): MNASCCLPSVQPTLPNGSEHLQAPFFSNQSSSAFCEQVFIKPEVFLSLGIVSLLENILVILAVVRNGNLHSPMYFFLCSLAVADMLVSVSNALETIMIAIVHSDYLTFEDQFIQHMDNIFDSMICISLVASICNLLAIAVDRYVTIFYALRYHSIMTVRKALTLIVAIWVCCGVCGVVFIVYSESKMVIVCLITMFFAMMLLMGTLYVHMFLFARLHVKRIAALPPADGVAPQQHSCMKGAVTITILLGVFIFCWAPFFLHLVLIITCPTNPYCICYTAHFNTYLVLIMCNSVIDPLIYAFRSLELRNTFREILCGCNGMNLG

## CC(=O)N[C@H](C(=O)N[C@H]1CSSC[C@@H](C(N)=O)NC(=O)CCCNC(=O)[C@H](Cc2c[nH]c3ccccc23)NC(=O)[C@H](CCCNC(=N)N)NC(=O)[C@@H](Cc2ccccc2)NC(=O)[C@H](Cc2c[nH]cn2)NC1=O)C(C)C [Ac-Val-c(Cys-His-D-Phe-Arg-Trp-Gaba-Cys)-NH2] (Ac-VCH[dF]RW[GABA]C-NH2; disulfide 2-8 (inferred))
hMC1-R [1]
  Ki: 0.256 nM

## C[C@H]1NC(=O)[C@@H](NC(=O)CN2C(=O)CNC2=O)CSSC[C@@H](C(N)=O)NC(=O)[C@H](Cc2c[nH]c3ccccc23)NC(=O)[C@H](CCCNC(=N)N)NC(=O)[C@@H](Cc2ccccc2)NC(=O)[C@H](Cc2cnc[nH]2)NC1=O [Hydantoin(C(O)-(Gly-Gly))-c(Cys-D-Ala-His-D-Phe-Arg-Trp-Cys)-NH2]
hMC5-R [2]; Ki hMC5, Table 7
  Ki: 50 nM
hMC1-R [3]
  EC50: 14.2 nM
hMC3-R
  EC50: 2.46 nM
hMC4-R
  EC50: 0.336 nM
hMC5-R [4]
  EC50: 201 nM

## CC(=O)N[C@H]1CSSC[C@@H](C(=O)N2CCC[C@H]2C(=O)N2CCC[C@H]2C(=O)N[C@@H](CCCCN)C(=O)N[C@@H](CC(=O)O)C(=O)NCCC(=O)N[C@@H](CCCNC(=N)N)C(=O)N[C@@H](CCCCN)C(=O)N[C@@H](CCCNC(=N)N)C(=O)N[C@@H](CCCNC(=N)N)C(=O)N[C@@H](CCCNC(=N)N)C(=O)N[C@@H](CCC(N)=O)C(=O)N[C@@H](CCCNC(=N)N)C(=O)N[C@@H](CCCNC(=N)N)C(=O)N[C@@H](CCCNC(=N)N)C(N)=O)NC(=O)[C@H](C)NC(=O)[C@H](Cc2csc3ccccc23)NC(=O)[C@H](CCCNC(=N)N)NC(=O)[C@@H](Cc2ccc3ccccc3c2)NC(=O)[C@H](Cc2c[nH]cn2)NC(=O)[C@H](CCC(=O)O)NC1=O
hMC5-R [2]; Ki hMC5-R, Table 6
  Ki: 15.5 nM
hMC1-R [3]
  EC50: 19.1 nM
hMC3-R
  Kb: 106 nM
hMC4-R
  Kb: 4.59 nM
hMC5-R [4]
  EC50: 100 nM

## CC(=O)N[C@H]1CSSC[C@@H](C(=O)N2CCC[C@H]2C(=O)N2CCC[C@H]2C(=O)N[C@@H](CCCCN)C(=O)N[C@@H](CC(=O)O)C(=O)NCCC(=O)NCC(=O)N[C@@H](CCCNC(=N)N)C(=O)N[C@@H](CCCCN)C(=O)N[C@@H](CCCNC(=N)N)C(=O)N[C@@H](CCCNC(=N)N)C(=O)N[C@@H](CCCNC(=N)N)C(=O)N[C@@H](CCC(N)=O)C(=O)N[C@@H](CCCNC(=N)N)C(=O)N[C@@H](CCCNC(=N)N)C(=O)N[C@@H](CCCNC(=N)N)C(N)=O)NC(=O)[C@H](C)NC(=O)[C@H](Cc2csc3ccccc23)NC(=O)[C@H](CCCNC(=N)N)NC(=O)[C@@H](Cc2ccc3ccccc3c2)NC(=O)[C@H](Cc2c[nH]cn2)NC(=O)[C@H](CCC(=O)O)NC1=O
hMC5-R [2]; Ki hMC5-R, Table 6
  Ki: 15.5 nM
hMC1-R [3]
  EC50: 32.2 nM
hMC3-R
  Kb: 98.3 nM
hMC4-R
  Kb: 5.23 nM
hMC5-R [4]
  EC50: 194 nM

## CC(=O)N[C@@H](CCCNC(=N)N)C(=O)N[C@H]1CC(=O)NCCCC[C@@H](C(N)=O)NC(=O)[C@H](C)NC(=O)[C@H](Cc2c[nH]c3ccccc23)NC(=O)[C@H](CCCNC(=N)N)NC(=O)[C@@H](Cc2ccccc2)NC(=O)[C@H](Cc2c[nH]cn2)NC1=O [Ac-Arg-c(Asp-His-D-Phe-Arg-Trp-Ala-Lys)-NH2]
hMC5-R [2]; Table 5, read-out: Ki hMC5-R
  Ki: 783 nM
hMC1-R [3]; Table 9A/9B, read-out: EC50 hMC1-R
  EC50: 1.39 nM
hMC3-R; Table 9A/9B, read-out: EC50 hMC3-R
  EC50: 2.89 nM
hMC4-R; Table 9A/9B, read-out: EC50 hMC4-R
  EC50: 0.055 nM
hMC5-R [4]; Table 9A/9B, read-out: EC50 hMC5-R
  EC50: 467 nM

## CCCC[C@H](NC(C)=O)C(=O)N[C@H]1CSSC[C@@H](C(N)=O)NC(=O)CCNC(=O)[C@@H](Cc2c[nH]c3ccccc23)NC(=O)[C@H](CCCNC(=N)N)NC(=O)[C@@H](Cc2ccccc2)NC(=O)[C@H](Cc2c[nH]cn2)NC1=O [Ac-Nle-c(Cys-His-D-Phe-Arg-D-Trp-β-Ala-Cys)-NH2]
hMC1-R [1]
  Ki: 0.323 nM

## CCCC[C@H](NC(C)=O)C(=O)N[C@H]1CC(=O)NCCCC[C@@H](C(N)=O)NC(=O)CCNC(=O)[C@H](Cc2c[nH]c3ccccc23)NC(=O)[C@H](CCCNC(=N)N)NC(=O)[C@@H](Cc2ccc3ccccc3c2)NC(=O)[C@H](Cc2c[nH]cn2)NC1=O [Ac-Nle-c(Asp-His-D-2-Nal-Arg-Trp-β-Ala-Lys)-NH2]
hMC1-R [1]
  Ki: 0.648 nM
hMC1-R [3]; Table 9C/9D, read-out: EC50 hMC1-R
  EC50: 0.913 nM

## CC(=O)N[C@H]1CSSC[C@@H](C(=O)N2CCC[C@H]2C(=O)N2CCC[C@H]2C(=O)N[C@@H](CCCCN)C(=O)N[C@@H](CC(=O)O)C(=O)NCCC(=O)NCC(=O)N[C@@H](CCCNC(=N)N)C(=O)N[C@@H](CCCNC(=N)N)C(=O)N[C@@H](CCCNC(=N)N)C(=O)N[C@@H](CCCNC(=N)N)C(=O)N[C@@H](CCCNC(=N)N)C(=O)N[C@@H](CCC(N)=O)C(=O)N[C@@H](CCCNC(=N)N)C(=O)N[C@@H](CCCNC(=N)N)C(=O)N[C@@H](CCCNC(=N)N)C(N)=O)NC(=O)[C@H](C)NC(=O)[C@H](Cc2csc3ccccc23)NC(=O)[C@H](CCCNC(=N)N)NC(=O)[C@@H](Cc2ccc3ccccc3c2)NC(=O)[C@H](Cc2c[nH]cn2)NC(=O)[C@H](CCC(=O)O)NC1=O (Ac-CEH[d2Nal]R[Bta]ACPPKD[βAla]GRRRRRQRRR-NH2; disulfide 1-8)
hMC5-R [2]; Table 6, read-out: Ki hMC5-R
  Ki: 165 nM
hMC1-R [3]; [5]
  EC50: 146 nM
hMC3-R; [6]
  Kb: 104 nM
hMC4-R; [7]
  Kb: 32 nM
hMC5-R [4]; [8]
  EC50: 1400 nM

## CC(=O)N[C@H]1CSSC[C@@H](C(=O)N2CCC[C@H]2C(=O)N2CCC[C@H]2C(=O)N[C@@H](CCCNC(=N)N)C(=O)N[C@@H](CC(=O)O)C(=O)NCCC(=O)N[C@@H](CCCNC(=N)N)C(=O)N[C@@H](CCCNC(=N)N)C(=O)N[C@@H](CCCNC(=N)N)C(=O)N[C@@H](CCCNC(=N)N)C(=O)N[C@@H](CCCNC(=N)N)C(=O)N[C@@H](CCC(N)=O)C(=O)N[C@@H](CCCNC(=N)N)C(=O)N[C@@H](CCCNC(=N)N)C(=O)N[C@@H](CCCNC(=N)N)C(N)=O)NC(=O)[C@H](C)NC(=O)[C@H](Cc2csc3ccccc23)NC(=O)[C@H](CCCNC(=N)N)NC(=O)[C@@H](Cc2ccc3ccccc3c2)NC(=O)[C@H](Cc2c[nH]cn2)NC(=O)[C@H](CCC(=O)O)NC1=O
hMC5-R [2]; Ki hMC5-R, Table 6
  Ki: 48.3 nM
hMC1-R [3]
  EC50: 38.3 nM
hMC3-R
  Kb: 20.2 nM
hMC4-R
  Kb: 21.2 nM
hMC5-R [4]
  EC50: > 10000 nM

## CC(=O)N[C@H](CCCNC(=N)N)C(=O)N[C@H]1CSSC[C@@H](C(N)=O)NC(=O)[C@H](Cc2c[nH]c3ccccc23)NC(=O)[C@H](CCCNC(=N)N)NC(=O)[C@@H](Cc2ccccc2)NC(=O)[C@H](Cc2c[nH]cn2)NC(=O)[C@@H](C)NC1=O [Ac-D-Arg-c(Cys-D-Ala-His-D-Phe-Arg-Trp-Cys)-NH2]
hMC5-R [2]; Ki hMC5-R, Table 5
  Ki: 352 nM
hMC5-R [4]
  EC50: 1020 nM

## C[C@H]1NC(=O)[C@@H](NC(=O)CN2C(=O)N[C@@H](CCCNC(=N)N)C2=O)CSSC[C@@H](C(N)=O)NC(=O)[C@H](Cc2c[nH]c3ccccc23)NC(=O)[C@H](CCCNC(=N)N)NC(=O)[C@@H](Cc2ccc3ccccc3c2)NC(=O)[C@H](Cc2cnc[nH]2)NC1=O [Hydantoin(C(O)-(Arg-Gly))-c(Cys-D-Ala-His-D-2-Nal-Arg-Trp-Cys)-NH2]
hMC5-R [2]; Ki hMC5, Table 7
  Ki: 14.6 nM
hMC1-R [3]
  EC50: 96.6 nM
hMC3-R
  EC50: 13.1 nM
hMC4-R
  EC50: 21.2 nM
hMC5-R [4]
  EC50: 103 nM

## CC(=O)N[C@H]1CSSC[C@@H](C(N)=O)NC(=O)[C@H](C)NC(=O)[C@H](Cc2c[nH]c3ccccc23)NC(=O)[C@H](CCCNC(=N)N)NC(=O)[C@@H](Cc2ccccc2)NC(=O)[C@H](Cc2c[nH]cn2)NC(=O)[C@@H](C)NC1=O [Ac-c(Cys-D-Ala-His-D-Phe-Arg-Trp-Ala-Cys)-NH2] (Ac-C[dA]H[dF]RWAC-NH2; disulfide 1-8 (inferred))
hMC5-R [2]; Table 5, read-out: Ki hMC5-R
  Ki: > 10000 nM

## CC(=O)N[C@H]1CSSC[C@@H](C(=O)N2CCC[C@H]2C(=O)N2CCC[C@H]2C(=O)N[C@@H](CCCCN)C(=O)N[C@@H](CC(=O)O)C(=O)NCCC(=O)N[C@@H](Cc2ccc(O)cc2)C(=O)NCC(=O)N[C@@H](CCCNC(=N)N)C(=O)N[C@@H](CCCCN)C(=O)N[C@@H](CCCCN)C(=O)N[C@@H](CCCNC(=N)N)C(=O)N[C@@H](CCCNC(=N)N)C(=O)N[C@@H](CCC(N)=O)C(=O)N[C@@H](CCCNC(=N)N)C(=O)N[C@@H](CCCNC(=N)N)C(=O)N[C@@H](CCCNC(=N)N)C(N)=O)NC(=O)[C@H](C)NC(=O)[C@H](Cc2csc3ccccc23)NC(=O)[C@H](CCCNC(=N)N)NC(=O)[C@@H](Cc2ccc3ccccc3c2)NC(=O)[C@H](Cc2c[nH]cn2)NC(=O)[C@H](CCC(=O)O)NC1=O
hMC5-R [2]; Table 6, read-out: Ki hMC5-R
  Ki: 15.3 nM
hMC1-R [3]; [5]
  EC50: 37.9 nM
hMC3-R; [6]
  Kb: 112 nM
hMC4-R; [7]
  Kb: 41.1 nM
hMC5-R [4]; [8]
  EC50: 1800 nM
